Experiments:
KHYG-1 (IL-2 2.5 ng/mL) [1] = experiment: drug sensitivity score (DSS) (DSS units); higher = more sensitive; extreme values may be limits of the assay; settings: 72 h
[2] = tested on: normal primary NK cells, pool 1 (3 donors), resting (IL-2 0 ng/mL); experiment: as above; settings: 72 h
NK-YS (IL-2 2.5 ng/mL) [3] = experiment: as above; settings: 72 h
DERL-7 (IL-2 2.5 ng/mL) [4] = experiment: as above; settings: 72 h
[5] = tested on: normal primary NK cells, pool 1 (3 donors) (IL-2 2.5 ng/mL); experiment: as above; settings: 72 h
NKL (IL-2 2.5 ng/mL) [6] = experiment: as above; settings: 72 h
KAI3 (IL-2 2.5 ng/mL) [7] = experiment: as above; settings: 72 h
NK-92 (IL-2 2.5 ng/mL) [8] = experiment: as above; settings: 72 h
SNK-6 (IL-2 2.5 ng/mL) [9] = experiment: as above; settings: 72 h
YT (IL-2 2.5 ng/mL) [10] = experiment: as above; settings: 72 h
KHYG-1 (IL-2 2.5 ng/mL) [11] = experiment: percent inhibition of viability; higher = more inhibition; settings: 72 h
[12] = tested on: normal primary NK cells, pool 1 (3 donors), resting (IL-2 0 ng/mL); experiment: as above; settings: 72 h
NK-YS (IL-2 2.5 ng/mL) [13] = experiment: as above; settings: 72 h
DERL-7 (IL-2 2.5 ng/mL) [14] = experiment: as above; settings: 72 h
[15] = tested on: normal primary NK cells, pool 1 (3 donors) (IL-2 2.5 ng/mL); experiment: as above; settings: 72 h
NKL (IL-2 2.5 ng/mL) [16] = experiment: as above; settings: 72 h
KAI3 (IL-2 2.5 ng/mL) [17] = experiment: as above; settings: 72 h
NK-92 (IL-2 2.5 ng/mL) [18] = experiment: as above; settings: 72 h
SNK-6 (IL-2 2.5 ng/mL) [19] = experiment: as above; settings: 72 h
YT (IL-2 2.5 ng/mL) [20] = experiment: as above; settings: 72 h
IMC-1 (IL-2 20 ng/mL) [21] = experiment: drug sensitivity score (DSS) (DSS units); higher = more sensitive; extreme values may be limits of the assay; settings: 72 h
[22] = tested on: normal primary NK cells, pool 3 (3 donors) (IL-2 2.5 ng/mL); experiment: as above; settings: 72 h
[23] = tested on: normal primary NK cells, pool 2 (3 donors) (IL-2 2.5 ng/mL); experiment: as above; settings: 72 h
[24] = tested on: normal NK cells expanded with K562-aAPC; experiment: as above; settings: 72 h; IL-2 2.5 ng/mL
Protocol: (§1)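 Drug sensitivity and resistance testing on K562-aAPC-expanded normal NK cells: 5 concentrations (10-fold steps over a 10,000-fold range), 72 h at 37 °C, viability by CellTiter-Glo normalised to DMSO and benzethonium chloride controls; DSS from the fitted curve.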

[25] = tested on: normal NK cells expanded with K562-aAPC; experiment: percent inhibition of viability; higher = more inhibition; settings: 72 h, IL-2 2.5 ng/mL
Protocol: as §1

IMC-1 (IL-2 20 ng/mL) [26] = experiment: as above; settings: 72 h
[27] = tested on: normal primary NK cells, pool 3 (3 donors) (IL-2 2.5 ng/mL); experiment: as above; settings: 72 h
[28] = tested on: normal primary NK cells, pool 2 (3 donors) (IL-2 2.5 ng/mL); experiment: as above; settings: 72 h

CON(C)C(=O)N1N=C(c2cc(F)ccc2F)S[C@@]1(CCCN)c1ccccc1 [ARRY-520] (max concentration tested 1000 nM)
Settings | drug sensitivity score
DERL-7 (IL-2 2.5 ng/mL) [4] | 30.5
KAI3 (IL-2 2.5 ng/mL) [7] | 14.6
KHYG-1 (IL-2 2.5 ng/mL) [1] | 30.3
NK-92 (IL-2 2.5 ng/mL) [8] | 22.4
NK-YS (IL-2 2.5 ng/mL) [3] | 23.1
NKL (IL-2 2.5 ng/mL) [6] | 26
SNK-6 (IL-2 2.5 ng/mL) [9] | 27.8
YT (IL-2 2.5 ng/mL) [10] | 13.2
[2] | 0
[5] | 0

percent inhibition of viability [%]
Settings | DERL-7 (IL-2 2.5 ng/mL) [14] | KAI3 (IL-2 2.5 ng/mL) [17] | KHYG-1 (IL-2 2.5 ng/mL) [11] | NK-92 (IL-2 2.5 ng/mL) [18] | NK-YS (IL-2 2.5 ng/mL) [13] | NKL (IL-2 2.5 ng/mL) [16] | SNK-6 (IL-2 2.5 ng/mL) [19] | YT (IL-2 2.5 ng/mL) [20] | [12] | [15]
0.1 nM | -10.8 | -7.27 | -0.04 | -13.1 | -0.87 | 1.77 | 21 | 1.27 | -28.7 | -14.6
1 nM | 1.72 | -8.08 | -0.06 | -13.4 | 0.68 | -1.49 | 12.7 | 1.15 | -37.1 | -9.86
10 nM | 98.7 | 45.9 | 98.8 | 45.1 | 71.2 | 78.1 | 81.8 | 7.04 | -37.4 | -12
100 nM | 100 | 49.6 | 107 | 92.3 | 77 | 93.3 | 88 | 65.3 | -9.59 | 2.21
1000 nM | 100 | 49.5 | 103 | 89.1 | 76.6 | 87.7 | 87.7 | 65.7 | -26.9 | -7.49

CCN(CC)CCCC(C)Nc1ccnc2cc(Cl)ccc12 (stereo not drawn) [Chloroquine] (max concentration tested 100000 nM)
Settings | drug sensitivity score
IMC-1 (IL-2 20 ng/mL) [21] | 5.31
[22] | 11.8
[23] | 9.79
[24] | 14.2

percent inhibition of viability [%]
Settings | 10 nM | 100 nM | 1000 nM | 10000 nM | 100000 nM
IMC-1 (IL-2 20 ng/mL) [26] | -9.53 | -2.15 | -3.29 | -3.07 | 99.8
[25] | -7.98 | -8.65 | -3.82 | 76 | 101
[27] | -6.29 | 3.82 | 7.92 | 52.1 | 101
[28] | -5.74 | 2.44 | 3.84 | 28.9 | 101

N.N.[Cl][Pt][Cl] [Cisplatin] (max concentration tested 100000 nM)
Settings | drug sensitivity score
IMC-1 (IL-2 20 ng/mL) [21] | 27.8
[22] | 9.04
[23] | 8.93
[24] | 14.1

percent inhibition of viability [%]
Settings | 10 nM | 100 nM | 1000 nM | 10000 nM | 100000 nM
IMC-1 (IL-2 20 ng/mL) [26] | 0.88 | -0.16 | 84.2 | 100 | 100
[25] | 2.08 | 1.39 | 16.1 | 62.8 | 99.8
[27] | -4.27 | 1.37 | -2.08 | 24 | 96.7
[28] | -10.5 | -3.22 | -1.72 | 25.3 | 92.7

CCN(c1cc(-c2ccc(CN3CCOCC3)cc2)cc(C(=O)NCc2c(C)cc(C)[nH]c2=O)c1C)C1CCOCC1 [E7438] (max concentration tested 10000 nM)
Settings | drug sensitivity score
DERL-7 (IL-2 2.5 ng/mL) [4] | 0
KAI3 (IL-2 2.5 ng/mL) [7] | 0
KHYG-1 (IL-2 2.5 ng/mL) [1] | 0
NK-92 (IL-2 2.5 ng/mL) [8] | 3.24
NK-YS (IL-2 2.5 ng/mL) [3] | 0
NKL (IL-2 2.5 ng/mL) [6] | 0
SNK-6 (IL-2 2.5 ng/mL) [9] | 0
YT (IL-2 2.5 ng/mL) [10] | 0
[2] | 0
[5] | 0

percent inhibition of viability [%]
Settings | DERL-7 (IL-2 2.5 ng/mL) [14] | KAI3 (IL-2 2.5 ng/mL) [17] | KHYG-1 (IL-2 2.5 ng/mL) [11] | NK-92 (IL-2 2.5 ng/mL) [18] | NK-YS (IL-2 2.5 ng/mL) [13] | NKL (IL-2 2.5 ng/mL) [16] | SNK-6 (IL-2 2.5 ng/mL) [19] | YT (IL-2 2.5 ng/mL) [20] | [12] | [15]
1 nM | 7.34 | -4.36 | -5.22 | -6.98 | -4.53 | -13.6 | 1.4 | -6.25 | 6.57 | 3.3
10 nM | 4.06 | 3.43 | -1.93 | -6.59 | -0.35 | -3.23 | 5.22 | -2.68 | -0.47 | -9.28
100 nM | 9.96 | 0.88 | 0.98 | 11.7 | 5.89 | 3.68 | 2.14 | 0.66 | 9.19 | 3.33
1000 nM | 1.71 | -7.37 | 0.03 | 12.3 | 2.91 | 3.36 | 2.9 | -5.62 | -13.6 | -10.7
10000 nM | 11.7 | -7.23 | 4.04 | 18 | 11.4 | -3.21 | -16.1 | 0.29 | 3.73 | -1.96

From the supplement of paper PMC5908809
